{"source": "patent US8609647B2", "about": "“Nitrogen-containing spirocyclic compounds and pharmaceutical uses thereof” (Japan Tobacco Inc., priority 2009, dated 2013)", "data": [{"biological_target": "hJAK3 kinase domain (aa781-end) (Homo sapiens (Human), UniProt P52333)", "sequence (P52333 781-1124 limits assumed)": "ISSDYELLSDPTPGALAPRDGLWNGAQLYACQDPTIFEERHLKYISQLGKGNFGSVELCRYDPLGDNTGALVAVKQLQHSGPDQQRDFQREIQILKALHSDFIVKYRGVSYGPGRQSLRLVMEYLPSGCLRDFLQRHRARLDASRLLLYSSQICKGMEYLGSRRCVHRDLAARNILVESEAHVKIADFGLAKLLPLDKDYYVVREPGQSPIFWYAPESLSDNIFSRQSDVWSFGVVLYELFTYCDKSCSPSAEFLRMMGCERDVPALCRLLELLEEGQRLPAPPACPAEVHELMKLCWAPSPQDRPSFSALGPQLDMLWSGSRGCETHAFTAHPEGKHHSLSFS", "experiment": "JAK3 activity inhibition, kinase reaction (HTRF, TK substrate-biotin)", "units": {"IC50": "nM"}, "experimental": "JAK3 activity inhibitory effects of test compounds were evaluated by the following kinase reactions.\nIn the kinase reactions, fused proteins (6His tag-fused hJAK3 kinase domain (aa781-end)) which were coexpressed in Sf21 cells and purified by Ni2+/NTA agarose were used.\nA well in which ATP was not added was set out as a blank well.\nPlates were let stand at room temperature for 10 minutes from starting reactions.\nOne hour after the addition of the buffer for detection, fluorescence counts of each well were measured by a fluorescence microplate reader.\nData were obtained by deducting the average Ratio of a blank well from Ratio of each well.", "values": [{"smiles": "N#CCCN1CCCC12CCN(c1ncnc3[nH]ccc13)C2", "note": "(racemic) [Compound 53]", "IC50": 56}, {"smiles": "c1ccc(CN2CCCC23CCN(c2ncnc4[nH]ccc24)C3)cc1", "note": "(racemic) [Compound 90]", "IC50": 550}, {"smiles": "N#CCC(=O)N1CCCCC12CCN(c1c(Cl)cnc3[nH]ncc13)C2", "note": "(racemic) [Compound 93]", "IC50": 110}]}]}
